These results are taken from publication PMC6930660, “Synthesis and Comparative Structure–Activity Study of Carbohydrate-Based Phenolic Compounds as α-Glucosidase Inhibitors and Antioxidants” (Molecules, 2019).

“And” between values parts separate entries of the source, which are not always exact repeats. Equal entries are not always repeated.

Data set [1] is described as follows: DPPH radical scavenging assay (antioxidant activity). The settings on record: for EC50: MES-NaOH buffer pH 6.0, 15 min in the dark; for Antioxidant Trolox-eq (TE): trolox-equivalent (mol-trolox/mol-sample) = slope of sample / slope of trolox. The procedure: The antioxidant activity was assessed by employing the 2,2-diphenyl-1-picrylhydrazyl (DPPH) radical scavenging assay, according to the previously published method. In total, 100 μL of each sample (1000–10 μg/mL in 50%EtOH/ H2O ) or trolox (160–0 μM in 50% EtOH/ H2O ), and 50 μL of 2-(N-morpholino)ethanesulfonic acid (MES)-NaOH buffer (200 mM, pH = 6.0), and 50 μL of an 800 μM DPPH diluted in 99.5% EtOH were mixed in 96-well plates. Following shaking the microplate for 15 min in the dark, the absorbance was recorded at 520 nm using a microplate reader (Bio-Rad, Model 680). Effective percentages (%) were calculated as follows: Effective percentages (%) = 1−As/Ab ×100 where As is the absorbance of the sample and Ab is the absorbance of the blank (without samples, 50% EtOH/ H2O solution was used instead).
The trolox-equivalent (sample-mol/trolox-mol) was calculated as follows: Trolox−equivalent (mol−trolox/mol−sample) = Ss/St where Ss is the slope of the sample and St is the slope of trolox.

Data set [2] in a line: dissolution of the sample in water for the α-glucosidase assay. It is filed as physicochemical. Also on record: key: −: Did not dissolve in water. The following applies: samples prepared in H2O. The procedure:
(§1) The α-glucosidase inhibitory activity of all samples was assayed utilizing a commercially available FUJIFILM α-glucosidase inhibitory activity assay kit. In total, 25 μL of each sample (25–2000 μg/mL in H2O ) or acarbose (0.5–8 μg/mL in H2O ), 50 μL of 18.5 mM maltose diluted in maleic anhydride buffer (100 mM, pH = 6.0), and 25 μL of the rat α-glucosidase solution were incubated in a micro-tube at 37 °C for 30 min. Subsequently, 400 μL of purified water was added to the solution and the reaction mixture was boiled for 3 min to deactivate α-glucosidase. The generated glucose was measured by LabAssay™ glucose (mutarotase-GOD method). In total, 100 μL of the reaction solution and 150 μL of the coloring solution were incubated in 96-well plates at 37 °C for 10 min, and the absorbance was recorded at 505 nm using a microplate reader (Bio-Rad, Model 680). The inhibition percentage was calculated using the following Equation: Inhibition percentage (%) = 1−As−Ab/Ac ×100 where As is the absorbance of the analyzed sample, Ab is the absorbance of the blank (immediate deactivation), and Ac is the absorbance of the control ([…]). Acarbose was used as the positive control.

For data set [3], the target named is rat α-glucosidase. Description: α-glucosidase inhibitory activity assay (FUJIFILM kit, maltose substrate, glucose measured by mutarotase-GOD method). It is filed as biochemical. The following applies: rat α-glucosidase, 18.5 mM maltose, maleic anhydride buffer pH 6.0, 37 °C, 30 min; mean ± S.D. of n = 2. The procedure: as §1

Consider `O=C(OC[C@H]1OC[C@H](OC(=O)c2cccc(O)c2)[C@@H](OC(=O)c2cccc(O)c2)[C@@H]1OC(=O)c1cccc(O)c1)c1cccc(O)c1` [Compound 57, 1,5-Anhydro-2,3,4,6-tetrakis-O-(3-hydroxybenzoyl)-D-glucitol], for which, in data set [1], the “antioxidant activity (in words)” value was “no antioxidant activity was observed”. Further, in data set [1] (mean ± S.D. of n = 3), the EC50 is more than 78 µM. Besides, in data set [2], the “solubility in water (no α-glucosidase IC50 obtained)” value is “−^d”.
In the same order, the values of `O=C(OC[C@H]1OC[C@H](OC(=O)c2ccc(O)cc2)[C@@H](OC(=O)c2ccc(O)cc2)[C@@H]1OC(=O)c1ccc(O)cc1)c1ccc(O)cc1` [Compound 58, 1,5-Anhydro-2,3,4,6-tetrakis-O-(4-hydroxybenzoyl)-D-glucitol] are “no antioxidant activity was observed”, more than 78 µM and “−^d”.
On to `O=C(O[C@H]1[C@@H]2OC(=O)c3cc(O)c(O)c(O)c3-c3c(cc(O)c(O)c3O)C(=O)OC[C@H]2OC[C@@H]1OC(=O)c1cc(O)c(O)c(O)c1)c1cc(O)c(O)c(O)c1` [Compound 67, 1,5-Anhydro-2,3-bis-O-(3′,4′,5′-trihydroxybenzoyl)-4,6-O-hexahydroxydiphenyl-D-glucitol], for which, in data set [1] (mean ± S.D. of n = 3), a half-maximal response (EC50) required 6.79 ± 0.21 µM; the “Antioxidant Trolox-eq (TE)” value was 6.44 and 6.44 ± 0.24. Moreover, in data set [3], it took 3.22 ± 0.51 µM to reach half-maximal inhibition (IC50).
On to `COC(=O)c1ccc(O)c(O)c1` [Methyl 3,4-dihydroxybenzoate, methyl 3,4-dihydroxybenzoate, reference compound], for which, in data set [1] (mean ± S.D. of n = 3), the EC50 turned out to be 21.1 ± 1.08 µM and the “Antioxidant Trolox-eq (TE)” value came out at 2.20 ± 0.05. For the same compound, the “Antioxidant Trolox-eq (TE)” value in data set [1] (mean ± S.D. of n = 3, listed as methyl 3,4-dihydroxybenzoate) was found to be 2.20. The compound further showed an IC50 in data set [3] of more than 300 µM.
As for `COC(=O)c1cc(O)cc(O)c1` [Methyl 3,5-dihydroxybenzoate, methyl 3,5-dihydroxybenzoate, reference compound], the “antioxidant activity (in words)” value in data set [1] is “did not exhibit any notable activity”. In data set [3], the IC50 was more than 300 µM.
Consider `COC(=O)c1cccc(O)c1` [Methyl 3-hydroxybenzoate, methyl 3-hydroxybenzoate, reference compound], for which the “antioxidant activity (in words)” value in data set [1] is “did not exhibit any notable activity”. This compound displayed an IC50 in data set [3] of more than 660 µM.
For `COC(=O)c1ccc(O)cc1` [Methyl 4-hydroxybenzoate, methyl 4-hydroxybenzoate, reference compound] the same measures were “did not exhibit any notable activity” and more than 660 µM.
Regarding `COC(=O)c1cc(O)c(O)c(O)c1` [Methyl gallate, reference compound], in data set [1] (mean ± S.D. of n = 3), a half-maximal effect (EC50) was put at 19.6 ± 0.11 µM and the “Antioxidant Trolox-eq (TE)” value is given as 2.42 ± 0.27. For the same compound, the IC50 in data set [3] is 90.5 ± 6.97 µM.
In data set [1] (mean ± S.D. of n = 3), Tellimagrandin I [reference compound] yielded a concentration giving a half-maximal response (EC50) of 6.31 ± 0.27 µM. Also, the “Antioxidant Trolox-eq (TE)” value in data set [1] (mean ± S.D. of n = 3) was determined as 7.04 ± 0.37; in data set [1] (mean ± S.D. of n = 3, listed as tellimagrandin I) it was 7.04. Also, the IC50 in data set [3] came to 3.37 ± 0.04 µM.

What is called EC50 is the concentration needed to bring the measured effect to its halfway point. As usually defined, the IC50 is the concentration at which inhibition is half-maximal.
